# Measured values: patent publication US20230271956A1, “AMIDE DERIVATIVES” (Merck Patent GmbH, priority 2020, published 2023)
# Tests used:
# ACSS2 = biological target: T1, ACSS2 (Homo sapiens, UniProt Q9NR19); assay: Cellular assay of 14C acetate incorporation into histones (IC50 ACSS2 cellular histone); format: cell-based; conditions: HCT-15 cells
# T1 construct: endogenous fatty acid synthesis activity in the human HCT-15 cancer cell line; endogenous in cells; host or cells: HCT-15
# Protocol: This protocol describes a cellular assay capable to quantify endogenous histone acetylation activity in the human HCT-15 cancer cell line following the incorporation of extracellularly administered radiolabeled ^14C acetate with a scintillation based read out on acid extracted histones.
# HCT-15 cells are trypsinized, washed and suspended in DMEM culture medium supplemented with penicillin/streptomycin (100 U/mL), sodium pyruvate (1 mM), and 10% FBS
# Compounds serial dilutions are prepared in 96-well V-bottom microplate from 10 mM stock solutions in DMSO. From these dilutions 0.5 µl are transferred to a fresh plate including pure DMSO as negative control. The dilutions are prepared such, that the final concentration in the assay is 1/400 of the concentration in the serial dilution. The final DMSO concentration in the assay is 0.25 %.
# The cell suspension is seeded at densities of 2x10^5 cells per 170 µl into individual wells of a 96 well plate each containing 0.5 µl aliquots of compound serial dilutions and are kept for 1h in a cell incubator. To each well 30 µL of a mixture containing 0.5 mCi/mL of ^14C-acetate with full medium are added. Then, the wells are incubated for 3 hrs in the cell incubator.
# Further steps of the procedure should be conducted on ice or instrumentations precooled to 4° C. Cells are sedimented in the 96-well V-bottom microplate by centrifugation (Eppendorf 5804 R) at 1200 rpm for 5 min. The supernatant is removed and the cells are washed twice with 200µL of PBS-NaB (5 mM sodium butyrate) buffer by iterative resuspension and centrifugation. Finally, the cells are resuspended in 50 µL of TEB (PBS-NaB + 0.5 % Triton X-100) and left on ice for 10 minutes. After centrifugation at 2300 rpm for 10 minutes at 4° C. the supernatant is removed, the remaining pellet is suspended in 50 µL of 0.2 M HCl and incubated over night at 4° C. After incubation the well plate is shaken for 2 minutes in a MTP plate shaker set to 1200 rpm and then centrifuged at 3700 rpm for 10 mins. The lysate is carefully aspirated (~43 µL) and transferred into a white MTP plate (Greiner bio-one 65509). 90 µL of Ultima Gold XR scintillation cocktail are added and the plates are sealed with a transparent cover tape before mixing vigorously using plate shaker set to 1200 rpm. Radioactivity from ^14C incorporation in the wells is measured as CPM count in a MicroBeta Trilux luminescence counter.
# human rec ACSS2 = biological target: T2, human rec ACSS2 (Homo sapiens, UniProt Q9NR19); assay: Biochemical activity ACSS2 assay (AMP-Glo); conditions: human recombinant ACSS2, AMP-Glo, 180 min at 37° C.
# T2 construct: myc (C); purchased Origene
# Protocol: The biochemical activity assay for ACSS2 is based on the detection of released AMP by AMP-Glo ™ Assay kit (Promega, Madison). The assay is run in three steps: the enzymatic reaction in which human rec ACSS2 activates acetate with ATP and Coenzyme A as cosubstrates to acetyI-coA thereby releasing AMP and the detection reaction of AMP by AMP Glo assay in which after the destruction of the residual ATP with AMP Glo reagent 1 produced AMP is converted to ATP that is measured in a luciferase assay system (detection reagent). The ACSS2 activity correlates with the detected luminescence signal.
# The assay was performed in Perkin Elmer 384well white Proxiplates in a total volume of 8 µl.
# 1 nM (fc) C-term myc tagged ACSS2 (human, recombinant, Origene, Rockville, US) and a mixture of 100 µM (fc) ATP, 100 µM (fc) Coenzyme A and 500 µM (fc) sodium acetate were incubated in a total volume of 5 µl (50 mM Hepes, 1 mM Mg-chloride, 150 mM NaCl, 1 mM DTT, 0.01 % (w/v) BSA, 0.3 % DMSO, pH 7.5) in the absence or presence of the test compound (10 dilution concentrations, start conc 30 µM) for 180 min at 37° C. The reaction was stopped and residual ATP destroyed by the addition of 1 µl AMP Glo reagent solution (Promega, Madison, US). After 1 h incubation at room temperature 2 µl of AMP Glo detection reagent was added and the assay was incubated for 0.75 hr at room temperature. The luminescence signal was measured with an Envision multimode reader (Perkin Elmer LAS Germany GmbH) at 700 nm in luminescence mode. The full value used was the inhibitor-free reaction. The pharmacological zero value was generated by addition of ACSS2 inhibitor (Ac-CoA Synthase Inhibitor - CAS 508186-14-9 -Calbiochem) in a final concentration of 5 µM. The inhibitory values (IC50) were determined using the program Assay Analyzer® from GeneData.
# T2 sequence (Q9NR19 whole entry): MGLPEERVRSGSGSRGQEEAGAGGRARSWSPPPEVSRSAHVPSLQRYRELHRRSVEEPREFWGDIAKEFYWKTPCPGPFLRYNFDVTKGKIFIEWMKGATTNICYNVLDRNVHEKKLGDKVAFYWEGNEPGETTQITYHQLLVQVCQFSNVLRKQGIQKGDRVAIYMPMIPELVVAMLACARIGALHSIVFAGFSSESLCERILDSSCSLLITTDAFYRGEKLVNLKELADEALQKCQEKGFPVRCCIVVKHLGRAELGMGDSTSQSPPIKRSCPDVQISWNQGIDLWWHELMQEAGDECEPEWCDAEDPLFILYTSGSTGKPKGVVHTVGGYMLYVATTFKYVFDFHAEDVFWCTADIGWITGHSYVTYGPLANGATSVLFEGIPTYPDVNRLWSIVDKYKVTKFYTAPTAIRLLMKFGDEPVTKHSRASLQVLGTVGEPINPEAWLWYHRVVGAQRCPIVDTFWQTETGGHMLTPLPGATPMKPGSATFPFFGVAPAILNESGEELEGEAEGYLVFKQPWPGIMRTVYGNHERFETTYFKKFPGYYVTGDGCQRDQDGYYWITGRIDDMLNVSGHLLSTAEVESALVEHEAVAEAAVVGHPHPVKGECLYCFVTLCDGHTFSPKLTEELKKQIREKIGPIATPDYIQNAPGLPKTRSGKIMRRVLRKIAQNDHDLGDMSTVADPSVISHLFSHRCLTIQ
# T1 sequence (Q9NR19 whole entry): as above
SMILES,IC50 (ACSS2) [nM],IC50 (human rec ACSS2) [nM]
"CCn1cnc(NC(=O)c2cc3c(nc2OC)nc(C(O)(c2ccccn2)c2cccs2)n3CC)n1 (racemic) [Compound 43, 1-ethyl-N-(1-ethyl-1H-1,2,4-triazol-3-yl)-2-[hydroxy(pyridin-2-yl)(thiophen-2-yl)methyl]-5-methoxy-1H-imidazo[4,5-b]pyridine-6-carboxamide]",10 to 100,10 to 100
"CCc1c(C(O)(c2ccccc2)c2ccccn2)nc2cc(OC)c(C(=O)Nc3ncn(CC)n3)cn12 (single isomer, unassigned) [Compound 17, 3-ethyl-N-(1-ethyl-1,2,4-triazol-3-yl)-2-[hydroxy-phenyl-(2-pyridyl)methyl]-7-methoxy-imidazo[1,2-a]pyridine-6-carboxamide]",10 to 100,10 to 100
"CCn1cnc(NC(=O)c2cc3c(nc2OC)nc(C(O)(c2ccccc2)c2ccc(OC(F)F)cc2)n3CC)n1 (racemic) [Compound 86, 2-{[4-(difluoromethoxy)phenyl](hydroxy)phenylmethyl}-1-ethyl-N-(1-ethyl-1H-1,2,4-triazol-3-yl)-5-methoxy-1H-imidazo[4,5-b]pyridine-6-carboxamide]",1 to 10,1 to 10
"CCn1cnc(NC(=O)c2cc3c(nc2OC)nc(C(O)(c2ccccc2)c2ccncn2)n3CC)n1 (racemic) [Compound 42, 1-ethyl-N-(1-ethyl-1H-1,2,4-triazol-3-yl)-2-[hydroxy(phenyl)(pyrimidin-4-yl)methyl]-5-methoxy-1H-imidazo[4,5-b]pyridine-6-carboxamide]",1 to 10,10 to 100
"CCn1cc(NC(=O)c2cc3c(nc2OC)nc(C(O)(c2ccccc2)c2ccc(OC(F)F)cc2)n3CC)cn1 (racemic) [Compound 80, 2-{[4-(difluoromethoxy)phenyl](hydroxy)phenylmethyl}-1-ethyl-N-(1-ethyl-1H-pyrazol-4-yl)-5-methoxy-1H-imidazo[4,5-b]pyridine-6-carboxamide]",10 to 100,10 to 100
"CCn1cnc(NC(=O)c2cc3c(nc2OC)nc(C(O)(c2ccccc2)c2nccs2)n3CC)n1 (racemic) [Compound 44, 1-ethyl-N-(1-ethyl-1H-1,2,4-triazol-3-yl)-2-[hydroxy(phenyl)(1,3-thiazol-2-yl)methyl]-5-methoxy-1H-imidazo[4,5-b]pyridine-6-carboxamide]",1 to 10,1 to 10
"CCn1cnc(NC(=O)c2cc3c(nc2OC)nc(C(O)(c2ccccc2C)c2ccccc2C)n3CC)n1 [Compound 52, 1-ethyl-N-(1-ethyl-1H-1,2,4-triazol-3-yl)-2-[hydroxybis(2-methylphenyl)methyl]-5-methoxy-1H-imidazo[4,5-b]pyridine-6-carboxamide]",10 to 100,10 to 100
"CCn1ncc(NC(=O)c2cc3c(nc2OC)nc(C(O)(c2ccccc2)c2ccccc2)n3CC)n1 [Compound 58, 1-ethyl-N-(2-ethyl-2H-1,20,3-triazol-4-yl)-2-(hydroxydiphenylmethyl)-5-methoxy-1H-imidazo[4,5-b]pyridine-6-carboxamide]",10 to 100,10 to 100
"CCn1cc(NC(=O)c2cc3c(nc2Cl)nc(C(O)(c2ccccc2)c2ccc(OC(F)F)cc2)n3CC)cn1 (racemic) [Compound 84, 5-chloro-2-{[4-(difluoromethoxy)phenyl](hydroxy)phenylmethyl}-1-ethyl-N-(1-ethyl-1H-pyrazol-4-yl)-1H-imidazo[4,5-b]pyridine-6-carboxamide]",10 to 100,10 to 100
"CCn1ccc(NC(=O)c2cc3c(nc2OC)nc(C(O)(c2ccccc2)c2ccccc2)n3CC)n1 [Compound 77, 1-ethyl-N-(1-ethyl-1H-pyrazol-3-yl)-2-(hydroxydiphenylmethyl)-5-methoxy-1H-imidazo[4,5-b]pyridine-6-carboxamide]",1 to 10,1 to 10
"CCn1cc(NC(=O)c2cc3c(nc2Cl)nc(C(O)(c2ccccc2)c2ccc(OC(F)F)cc2F)n3CC)cn1 (racemic) [Compound 81, 5-chloro-2-{[4-(difluoromethoxy)-2-fluorophenyl](hydroxy)phenylmethyl}-1-ethyl-N-(1-ethyl-1H-pyrazol-4-yl)-1H-imidazo[4,5-b]pyridine-6-carboxamide]",10 to 100,1 to 10
"CCn1c(C(O)(c2ccccc2)c2ccccc2)nc2nc(OC)c(C(=O)Nc3cnn(CCOC)c3)cc21 [Compound 70, 1-ethyl-2-(hydroxydiphenylmethyl)-5-methoxy-N-[1-(2-methoxyethyl)-1H-pyrazol-4-yl]-1H-imidazo[4,5-b]pyridine-6-carboxamide]",10 to 100,10 to 100
"CCn1c(C(O)(c2ccccc2)c2ccccc2)nc2nc(Cl)c(C(=O)Nc3cnn(CCOC)c3)cc21 [Compound 67, 5-chloro-1-ethyl-2-(hydroxydiphenylmethyl)-N-[1-(2-methoxyethyl)-1H-pyrazol-4-yl]-1H-imidazo[4,5-b]pyridine-6-carboxamide]",10 to 100,10 to 100

# The next lines start with the values.
IC50 (ACSS2) [nM],IC50 (human rec ACSS2) [nM],SMILES
10 to 100,1 to 10,"CCn1cnc(NC(=O)c2cc3c(nc2C)nc(C(O)(c2ccccc2F)c2ccc(OC(F)F)cc2F)n3CC)n1 (single isomer, unassigned) [Compound 96]"
10 to 100,10 to 100,"CCn1cc(NC(=O)c2cc3c(nc2OC)nc(C(O)(c2ccc(OC(F)F)cc2)c2ccccc2F)n3CC)cn1 (racemic) [Compound 88, 2-{[4-(difluoromethoxy)phenyl](2-fluorophenyl)hydroxymethyl}-1-ethyl-N-(1-ethyl-1H-pyrazol-4-yl)-5-methoxy-1H-imidazo[4,5-b]pyridine-6-carboxamide]"
1 to 10,1 to 10,"CCn1cnc(NC(=O)c2cnc3nc(C(O)(c4ccccc4F)c4ccccc4F)n(CC)c3c2)n1 [Compound 110, 2-[bis(2-fluorophenyl)(hydroxy)methyl]-1-ethyl-N-(1-ethyl-1H-1,2,4-triazol-3-yl)-1H-imidazo[4,5-b]pyridine-6-carboxamide]"
0.01 to 1,1 to 10,"CCn1cnc(NC(=O)c2cc3c(nc2Cl)nc(C(O)(c2ccccc2)c2ccccc2)n3CC)n1 [Compound 99, 5-chloro-1-ethyl-N-(1-ethyl-1H-1,2,4-triazol-3-yl)-2-(hydroxydiphenylmethyl)-1H-imidazo[4,5-b]pyridine-6-carboxamide]"
1 to 10,1 to 10,"CCn1cnc(NC(=O)c2cc3c(nc2OC)nc(C(O)(c2ccc(OC(F)F)cc2)c2ccccc2F)n3CC)n1 (racemic) [Compound 87, 2-{[4-(difluoromethoxy)phenyl](2-fluorophenyl)hydroxymethyl}-1-ethyl-N-(1-ethyl-1H-1,2,4-triazol-3-yl)-5-methoxy-1H-imidazo[4,5-b]pyridine-6-carboxamide]"
10 to 100,10 to 100,"CCn1cnc(NC(=O)c2cc3c(nc2C)nc(C(O)(c2ccccc2F)c2ccc(OC(F)F)cc2F)n3CC)n1 (single isomer, unassigned) [Compound 95]"
